This is an account of results in patent US20220259556A1, “METHOD FOR OBTAINING IMMUNO-SUPPRESSIVE DENDRITIC CELLS” (Transimmune AG, priority 2013, published 2022).

Entries after “also recorded” stand apart in the source; their conditions may differ. Ends that are not written are not given here.

One assay deals with GILZ. Description: GILZ expression in plate-passed PBMC treated with 8-MOP and UVA. It counts as cell-based. Conditions: monocytes physically activated by passage through device, then 8-MOP and UVA. How it is done:
Monocytes were passed through a device derived from the Therakos system. The dimensions of the flow chamber were 30 mm width, 1600 mm length, and 1 mm height. In brief, a blood sample was spun at low speed through a Ficoll gradient to obtain e.g. 80 ml of sample with a concentration of peripheral blood mononuclear cells (PBMC) of e.g. 1.5*10^6 cells/ml. The chamber was pre-coated with platelets. The sample was passed through the chamber for 60 min at a flow rate of about 24 ml/min corresponding to a shear stress of about 0.13 Pa. The collected activated monocytes were spun at low speed and resuspended in a small volume of medium comprising 8-MOP and irradiated with […], incubated for a day and used for further analysis (Day 1PBMC+PP). As a control PBMCs were not passed through the device and incubated for a day (Day 1 PBMC). Further, PBMC were analyzed directly after harvest through a Ficoll gradient (Day0 PBMC). Day 1 PBMC+PP were then further treated with 8-MOP and UVA (PUVA). The cells and controls were then analyzed for expression of GILZ.

Another assay has as its system MoDC. Put plainly: Immunophenotyping of MoDC (HLA-DR, CD80, CD83, CD86, intracellular GILZ). It counts as cell-based, human. The conditions noted are these: product of 8-MOP and UVA exceeded 100; 24 hr after PUVA. On the procedure: (§1) Lymphocytes were treated with 8-MOP (100 ng/mL) and UVA (1 J/cm^2), washed with PBS, and co-cultured in complete media at 37° C. and 5% CO2 with either PUVA-treated or untreated-MoDC in a ratio of 5 or 10 lymphocytes to 1 MoDC. MoDC treated for 24 hr with 100 nM dexamethasone (Sigma) served as the positive control group. After 24 hr, cells were harvested and MoDC were re-purified. […] CD11c^+ MoDC were re-plated at 0.5-1.0×10^6 cells/mL in complete media and stimulated with 100 ng/mL LPS (Sigma). 24 hr after LPS stimulation, cells were harvested for RNA isolation and immunophenotyping, and supernatants were collected for cytokine quantification.
Monoclonal antibodies included HLA-DR, CD80, CD83, CD3, CD86, CD14, CD11c and GILZ. Antibodies were obtained from Beckman-Coulter and eBioscience and were used at their pre-determined optimal dilutions. Apoptosis was assessed using the Annexin-V Apoptosis Detection Kit (eBioscience), with Annexin-V recognizing phosphatidylserine (PS) on the surface of apoptotic cells. 7-AAD substituted for PI as the cell viability dye. Cells displaying an Annexin-V^+/7-AAD^− phenotype were classified as early apoptotic cells, and cells displaying an Annexin-V^+/7-AAD^+ phenotype were classified as late apoptotic cells. Dual membrane and intracytoplasmic staining was performed using the IntraPrep fix and permeabilization kit (Beckman-Coulter). Background staining was established with appropriate isotype and fluorescence minus one controls. Immunofluorescence was analyzed using a FACSCalibur L (BD Biosciences) within 2 hr of fixation with 2% paraformaldehyde. A minimum of 10,000 events were collected for each group.

A further assay has as its system lymphocytes. Description: Apoptosis of lymphocytes (Annexin-V/7-AAD). It counts as cell-based, human. Conditions: 1 J/cm^2 and 100 ng/mL. On the procedure:
as §1
Monoclonal antibodies included HLA-DR, CD80, CD83, CD3, CD86, CD14, CD11c and GILZ. Antibodies were obtained from Beckman-Coulter and eBioscience and were used at their pre-determined optimal dilutions. Apoptosis was assessed using the Annexin-V Apoptosis Detection Kit (eBioscience), with Annexin-V recognizing phosphatidylserine (PS) on the surface of apoptotic cells. 7-AAD substituted for PI as the cell viability dye. […] Background staining was established with appropriate isotype and fluorescence minus one controls. Immunofluorescence was analyzed using a FACSCalibur L (BD Biosciences) within 2 hr of fixation with 2% paraformaldehyde. […]

Another assay deals with platelets. Put plainly: Platelet adhesion studies in Vena8 flow chamber. It counts as cell-based, human. On the procedure:
For experiments not involving the collection and phenotyping of cells post-flow, Vena8 biochips (Cellix Ltd, Dublin, Ireland) were used to generate laminar flow. The volumetric flow path for a channel of the Vena8 biochips measured 20000×400×100 microns (length×width×height). Protein coating of these chips is described in the appropriate section below.
Platelet adhesion experiments were performed using the Vena8 flow chamber described above. Fibrinogen and fibronectin (Sigma) were dissolved in PBS to a final concentration of 200 mcg/ml. Channels of the Vena8 chips were incubated at room temperature in a humidified chamber for 2 hours with the protein solution, autologous plasma, or PBS alone. The channels were washed with 5× the volume RPMI. Platelet-rich-plasma was then perfused through the protein-coated channel at the indicated shear-stress, held constant. For each channel, still images were acquired exactly 90 seconds into the experiment at 4 pre-defined low power fields located along the flow path (fields were centered at 2500, 7500, 12500, and 17500 microns from the start point of infusion).
Some experiments involved pre-treating platelet-rich-plasma with protein fragments prior to infusion through the channels. Small RGD peptides, containing the amino-acid sequence Arg-Gly-Asp-Ser; DRG peptides, contain the amino-acid sequence Ser-Asp-Gly-Arg; or fragment 400-411 of fibrinogen, containing the amino-acid sequence His-His-Leu-Gly-Gly-Ala-Lys-Gln-Ala-Gly-Asp-Val, were incubated at a concentration of 2 mM with PRP for 20 minutes at room temperature. The PRP was then perfused through the channels as previously described.

The test system of another assay is monocytes. Description: Static co-cultures of platelets with monocytes. It counts as cell-based, human. Conditions: static conditions, 18 hours. On the procedure: Experiments involving co-cultures of monocytes with additional platelets were performed as described in the Overnight Culture section, with a few necessary modifications. Following Ficoll-Hypaque separation, mononuclear cells were resuspended in 30% AB serum/RMPI to a final concentration of 10×10^6 cells/ml, of which 1 ml was allocated to each well of a 16-well plate. An additional 1 ml of platelets (suspended in RPMI, at 2× the desired final concentration) or RPMI without platelets was then added to each well. To activate platelets, 500 μl containing 2 units of thrombin was added to half the wells, and 500 μl of RPMI was added to the others to balance the volume. Cells were then incubated as described previously.

For the molecule `COc1c2occc2cc2ccc(=O)oc12` [8-MOP, 8-methoxypsoralen], the “GILZ expression / differentiation of activated monocytes” value with GILZ is recorded as “can be channeled into immuno-suppressive dendritic cells; also recorded: increase of expression of GILZ”. Further, in the assay with MoDC, the “Reduction of CD80 cell surface expression” value is 30%, the “Reduction of CD83 cell surface expression” value is 31% and the “Reduction of CD86 cell surface expression” value is reported as 54%. The “Time to Annexin-V display by lymphocytes” value in the assay with lymphocytes is 2 h. On to “Arg-Gly-Asp-Ser (RGDS; printed: Arg-Gly-Asp-Ser) [RGD peptides, Small RGD peptides]”, for which the “Platelet adhesion to fibronectin-coated plates” value in the assay on platelets (platelets (PRP) pre-incubated with 2 mM peptide for 20 minutes, flow) was “decreased”. As to “HHLGGAKQAGDV [fragment 400-411 of fibrinogen]”, in the assay on platelets (platelets (PRP) pre-incubated with 2 mM peptide for 20 minutes, flow, listed as gamma fragments), the “Platelet adhesion to fibrinogen-coated plates” value was “decreased”. As for fibrinogen, in the assay on platelets (unactivated platelets in flow, wall shear stress 0.2 to 6.0 dyne/cm^2), the “Platelet adhesion to plates pre-coated with the protein” value is given as “highest concentrations of platelets adhered”. Take thrombin: the “Monocyte differentiation versus cultures with platelets not activated by thrombin” value in the assay with monocytes is “did not cause a discernible difference”.
